Source: patent US6121241A, “Anticoagulant peptide aldehyde derivatives” (Gyogyszerkutato Intezet Kft., priority 1996, dated 2000)
Read-outs that look alike come from different tables or passages of the source.

Columns and labels:
thrombin = target: T1, thrombin (Homo sapiens, UniProt P00734); assay: Inhibition of the amidolytic effect of thrombin on Tos-Gly-Pro-Arg-pNA; format: biochemical; settings: Tos-Gly-Pro-Arg-pNA substrate
T1 construct: The isolated active factor (e.g. thrombin, fXa) and its chromogen or fluorogen peptide-amide substrate are reacted
Experimental: (§1) Anticoagutant activity (i.e. inhibition of the proteolytic reactions in the process) is measured by anticoagulant tests, e.g. by the thrombin time (TT), activated partial thromboplastin time (APTT) and prothrombin time (PT) tests [E. J. W. Bovie et al; Mayo Clinic Laboratory Manual of Hemostasis; W. B. Sanuders Co., Philadelphia (1971)]. Plasma, inhibited in spontaneous coagulation, e.g. citrate-plasma, is made to coagulate and the required coagulation time is measured. Upon the action of anticoagulants the coagulation time is prolonged proportionally to the inhibition of the reaction(s) in the process. The anticoagulant effect can be characterized by the substance concentration required to double the coagulation time compared to the control (IC50). The effect of anticoagulants on individual coagulant proteases is measured by the amidolytic method [R. Lottenberg et al., Methods in Enzymol. 80, 341 (1981); G. Cleason, Blood Coagulation and Fibrinolysis 5, 411 (1994)]. The isolated active factor (e.g. thrombin, fXa) and its chromogen or fluorogen peptide-amide substrate are reacted in the presence or absence of the inhibitor, resp. The enzyme inhibiting action is characterized by the inhibitory constant (IC50) measured during amidolysis.
In the case of D-MePhe-Pro-Arg-H (C1) the concentration doubling the clotting time in the TT, APTT and PT tests amounted to 87, 622 and 2915 nM, resp.

[1] = target: tissue plasminogen activator (tPA) (Homo sapiens, UniProt P00750); assay: Fibrin-plate method, plasmin formation induced by tPA; format: biochemical; settings: for IC50: fibrin-plate method, hydrolyzed area reduced by 50%
tissue plasminogen activator (tPA), sequence (P00750 36-562, species assumed): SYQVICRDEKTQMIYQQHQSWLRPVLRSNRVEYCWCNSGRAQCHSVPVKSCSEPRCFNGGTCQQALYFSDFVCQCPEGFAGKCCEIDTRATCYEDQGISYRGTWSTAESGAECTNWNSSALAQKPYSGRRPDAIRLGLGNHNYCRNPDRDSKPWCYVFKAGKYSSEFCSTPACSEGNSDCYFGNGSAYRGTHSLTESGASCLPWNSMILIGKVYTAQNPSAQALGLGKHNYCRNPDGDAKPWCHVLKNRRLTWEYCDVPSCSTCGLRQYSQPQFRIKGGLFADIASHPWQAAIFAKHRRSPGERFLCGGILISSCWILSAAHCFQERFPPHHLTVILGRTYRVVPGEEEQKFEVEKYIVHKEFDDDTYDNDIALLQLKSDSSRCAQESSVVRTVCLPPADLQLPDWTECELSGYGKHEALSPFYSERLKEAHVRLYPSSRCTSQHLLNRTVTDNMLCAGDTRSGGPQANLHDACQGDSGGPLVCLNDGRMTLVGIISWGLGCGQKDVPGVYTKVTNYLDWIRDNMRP
Source text: The inhibitory effect of the new compounds of the invention on plasmin (PL) as well as on plasmin formation induced by tissue plasminagen activator (tPA) and urokinase (UK) was studied by the […] [D. Bagdy et al.; Thromb. Haemost. 67, 325 (1992)]. Compounds C1 and C3 served as controls. […] V. Jackson et al., J. Cardiovasc. Pharmacol. 21, 587 (1993)].
^a IC50 = peptide concentration (mM) where the hydrolyzed area o
the fibrin plate is reduced by 50% compared to the control

[2] = test system: whole blood clotting time (WBCT); assay: Ex vivo whole blood clotting time (WBCT) in rabbits after p.o. dosing; parameters: species or system New Zealand white rabbits; settings: p.o. 5 mg/kg
Experimental: The anticoagulant and platelet aggregation inhibiting effect of the compounds of general formula (I) was studied In New Zealand white rabbits ex vivo according to D. Bagdy et al [Thromb. Haemost 67. 357 (1992). The compounds were dissolved in buffered isotonic saline solution and administered i.v. (0,04-5.0 mg/kg) or by infusion (0.25-5.0 mg/kg/h) or subcutaneously (0.5-6.0 mg/kg) or p.o. (2.5-20 mg/kg). The effect of the compounds was detectable already within 30 minutes following p.o. administration, peak values were attained after 60-180 minutes and the therapeutic level was maintained dose-dependently for 3→6 hours.
The in vivo effect of D-cHga Pro-Arg-H (1) is presented in detail in Tables 5 and 6. The corresponding values of C1 are listed as controls. The compound was administered p.o. in doses of 5 mg/kg. The blood samples drawn from the caudal vein in every 30-60 minutes were analyzed. The whole blood clotting time (WBCT) and the inhibition of thrombin-induced blood platelet aggregation (PAI) were determined. The activated partial thromboplastin time (APTT) and the thrombin time (TT) in the citrate plasma obtained from the blood sample were also measured. The APTT and TT values are compiled in Table 5 and the WBCT and PAI values in Table 6.

human factor Xa = target: T2, human factor Xa (Homo sapiens, UniProt P00742); assay: Inhibition of the amidolytic effect of factor Xa in solution on Bz-Ile-Glu-Gly-Arg-pNA (method M6); format: biochemical; settings: Table 2; Bz-Ile-Glu-Gly-Arg-pNA, isolated human factor Xa; read-out: B: IC50 (factor Xa inhibiting effect)
T2 construct: purchased SIGMA
T2 sequence (P00742 235-488 limits assumed): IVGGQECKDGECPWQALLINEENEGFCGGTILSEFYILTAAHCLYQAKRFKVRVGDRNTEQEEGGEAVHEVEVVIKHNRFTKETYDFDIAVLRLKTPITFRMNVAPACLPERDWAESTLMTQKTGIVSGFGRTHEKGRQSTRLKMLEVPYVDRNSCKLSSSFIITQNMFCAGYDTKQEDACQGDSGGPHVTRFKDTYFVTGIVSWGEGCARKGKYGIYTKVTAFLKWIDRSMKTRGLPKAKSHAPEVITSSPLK
T2 sequence (P00742 41-179 partner limits assumed): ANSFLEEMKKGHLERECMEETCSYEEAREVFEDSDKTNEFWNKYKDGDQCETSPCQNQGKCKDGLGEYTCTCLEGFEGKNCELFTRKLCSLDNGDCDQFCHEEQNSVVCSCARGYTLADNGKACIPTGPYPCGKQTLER
Experimental: as §1
The in vitro anticoagulant effect of the compounds of general formula (I) was measured by the prothrombin time (PT), activated partial thromboplastin time (APTT) and thrombin time (TT) tests [D. Bagdy et at., Thromb. Haemost. 67, 325 (1992)]. The Xa-factor-inhibiting effect of the compounds was also determined by using the Bz-Ile-Glu-Gly-Arg-pNA chromogen substrate (see method M6).
Assay of the Inhibition of Factor Xa in Solution on a 96-well Microtiter Plate
a) 1.3 U/mL factor Xa (human, SIGMA), 0.1-1.0-10 and 100 μg/mL solutions in phosphate buffer (0.1 M sodium phosphate and 0.05 M sodium chloride, pH 7.4) of the peptide inhibitors and […] solutions of the substrate Bz-Ile-Glu-Gly-Arg-pNA in distilled water are used.
b) Three reaction mixtures are prepared from the control and each peptide solution. 30 μL each of the peptide and the buffer, serving as control, 30 μL factor Xa, 90 μL butter and 150 μL substrate are placed in the wells of the plate, then after 10 minutes the extinction values are read at 405 nm The procedure is continued as described in Method M2, point c).

Row | Structure (SMILES) | IC50 (thrombin) [µM] | IC50 [1] [µM] | B: relative efficacy, tPA ([1]; related to the activity of C1 (1/IC50 = 1)) | WBCT relative clotting time ([2]; 0 min) | WBCT relative clotting time ([2]; 30 min) | WBCT relative clotting time ([2]; 45 min) | WBCT relative clotting time ([2]; 60 min) | WBCT relative clotting time ([2]; 90 min) | WBCT relative clotting time ([2]; 120 min) | WBCT relative clotting time ([2]; 180 min) | WBCT relative clotting time ([2]; 240 min) | IC50 (human factor Xa) [µM] | B: relative efficacy, tPA [1] | times lower activity than compound C3, second enzyme (tPA) ([1]; versus C3 of Table 4)
1 | CN[C@H](Cc1ccccc1)C(=O)N1CCC[C@H]1C(=O)N[C@H](C=O)CCCNC(=N)N [Compound C1, D-MePhe-Pro-Arg-H] | 0.002 | 132 | 1.0 | 1.0 | 1.07 ± 0.13 | 1.26 ± 0.07 | 1.55 ± 0.17 | 1.61 ± 0.34 | 1.45 ± 0.21 | 1.44 ± 0.08 | 1.22 ± 0.08 | 9.13 | – | –
2 | N=C(N)NCCC[C@@H](C=O)NC(=O)[C@H]1CCCN1C(=O)C(O)C1CCCCCC1.N=C(N)NCCC[C@@H](C=O)NC(=O)[C@H]1CCCN1C(=O)C(O)C1CCCCCC1.O=S(=O)(O)O (stereo partly drawn) [Compound 1, D-2-Cycloheptyl-2-hydroxyacetyl-L-prolyl-L-arginine aldehyde hemisulfate] | – | 74 | – | 1.0 | 1.80 ± 0.36 | 2.03 ± 0.35 | 1.98 ± 0.30 | 1.78 ± 0.26 | 1.52 ± 0.13 | 1.29 ± 0.07 | 1.13 ± 0.04 | 0.063 | 1.8 | 12
